# Source: ChEMBL document CHEMBL3797052 (Eur J Med Chem, 2016)
# Experiments:
# Assay type in all cases: functional
# [1] = Antiproliferative activity against human RPMI8226 cells assessed as cell growth at 10^-4 M after 48 hrs by sulforhodamine B assay; details: RPMI-8226, 48 h, read-out: Activity
# [2] = Antiproliferative activity against human OVCAR8 cells assessed as cell growth at 10^-8 M after 48 hrs by sulforhodamine B assay; details: OVCAR-8, 48 h, read-out: Activity
# SK-MEL-5 = assay: Antiproliferative activity against human SK-MEL-5 cells assessed as growth inhibition after 48 hrs by sulforhodamine B assay; details: SK-MEL-5, 48 h
# [3] = Antiproliferative activity against human HCC2998 cells assessed as cell growth at 10^-8 M after 48 hrs by sulforhodamine B assay; details: HCC 2998, 48 h, read-out: Activity
# CCRF-CEM = assay: Antiproliferative activity against human CCRF-CEM cells assessed as growth inhibition after 48 hrs by sulforhodamine B assay
# [4] = Antiproliferative activity against human SW620 cells assessed as cell growth at 10^-4 M after 48 hrs by sulforhodamine B assay; details: SW-620, 48 h, read-out: Activity
# [5] = Antiproliferative activity against human HCT116 cells assessed as cell growth at 10^-8 M after 48 hrs by sulforhodamine B assay; details: HCT-116, 48 h, read-out: Activity
# MDA-MB-435 [6] = assay: Antiproliferative activity against human MDA-MB-435 cells assessed as cell growth at 10^-7 M after 48 hrs by sulforhodamine B assay; details: MDA-MB-435, 48 h, read-out: Activity
# [7] = Antiproliferative activity against human HOP62 cells assessed as cell growth at 10^-7 M after 48 hrs by sulforhodamine B assay; details: HOP-62, 48 h, read-out: Activity
# [8] = Antiproliferative activity against human RPMI8226 cells assessed as cell growth at 10^-8 M after 48 hrs by sulforhodamine B assay; details: RPMI-8226, 48 h, read-out: Activity
# [9] = Antiproliferative activity against human DU145 cells assessed as cell growth at 10^-8 M after 48 hrs by sulforhodamine B assay; details: DU-145, 48 h, read-out: Activity
# SK-MEL-2 = assay: Antiproliferative activity against human SK-MEL-2 cells assessed as growth inhibition after 48 hrs by sulforhodamine B assay; details: SK-MEL-2, 48 h
# [10] = Antiproliferative activity against human MOLT4 cells assessed as cell growth at 10^-7 M after 48 hrs by sulforhodamine B assay; details: MOLT-4, 48 h, read-out: Activity
# K562 = assay: Antiproliferative activity against human K562 cells assessed as cell growth at 10^-6 M after 48 hrs by sulforhodamine B assay; details: K562, 48 h, read-out: Activity
# [11] = Antiproliferative activity against human SF539 cells assessed as cell growth at 10^-4 M after 48 hrs by sulforhodamine B assay; details: SF-539, 48 h, read-out: Activity
# [12] = Antiproliferative activity against human SW620 cells assessed as cell growth at 10^-6 M after 48 hrs by sulforhodamine B assay; details: SW-620, 48 h, read-out: Activity
# [13] = Antiproliferative activity against human Caki1 cells assessed as cell growth at 10^-4 M after 48 hrs by sulforhodamine B assay; details: CAKI-1, 48 h, read-out: Activity
# MDA-MB-435 [14] = assay: Antiproliferative activity against human MDA-MB-435 cells assessed as growth inhibition after 48 hrs by sulforhodamine B assay; details: MDA-MB-435, 48 h
# NCI-H23 = assay: Antiproliferative activity against human NCI-H23 cells assessed as growth inhibition after 48 hrs by sulforhodamine B assay; details: NCI-H23, 48 h
# EKVX = assay: Antiproliferative activity against human EKVX cells assessed as cell growth at 10^-7 M after 48 hrs by sulforhodamine B assay; details: read-out: Activity
# MDA-MB-435 [15] = assay: Antiproliferative activity against human MDA-MB-435 cells assessed as cell growth at 10^-8 M after 48 hrs by sulforhodamine B assay; details: MDA-MB-435, 48 h, read-out: Activity
# [16] = Antiproliferative activity against human OVCAR4 cells assessed as growth inhibition after 48 hrs by sulforhodamine B assay; details: OVCAR-4, 48 h
# [17] = Antiproliferative activity against human PC3 cells assessed as cell growth at 10^-6 M after 48 hrs by sulforhodamine B assay; details: PC-3, 48 h, read-out: Activity
# [18] = Antiproliferative activity against human SF268 cells assessed as cell growth at 10^-7 M after 48 hrs by sulforhodamine B assay; details: SF-268, 48 h, read-out: Activity
# [19] = Antiproliferative activity against human HCT116 cells assessed as cell growth at 10^-7 M after 48 hrs by sulforhodamine B assay; details: HCT-116, 48 h, read-out: Activity
# ACHN = assay: Antiproliferative activity against human ACHN cells assessed as cell growth at 10^-6 M after 48 hrs by sulforhodamine B assay; details: read-out: Activity
# [20] = Antiproliferative activity against human SNB19 cells assessed as cell growth at 10^-7 M after 48 hrs by sulforhodamine B assay; details: SNB-19, 48 h, read-out: Activity
# [21] = Antiproliferative activity against human IGROV1 cells assessed as cell growth at 10^-6 M after 48 hrs by sulforhodamine B assay; details: IGROV-1, 48 h, read-out: Activity
# [22] = Antiproliferative activity against human RPMI8226 cells assessed as growth inhibition after 48 hrs by sulforhodamine B assay; details: RPMI-8226, 48 h
# [23] = Antiproliferative activity against human UACC257 cells assessed as growth inhibition after 48 hrs by sulforhodamine B assay; details: UACC-257, 48 h
# [24] = Antiproliferative activity against human HCT116 cells assessed as growth inhibition after 48 hrs by sulforhodamine B assay; details: HCT-116, 48 h
# T47D = assay: Antiproliferative activity against human T47D cells assessed as cell growth at 10^-4 M after 48 hrs by sulforhodamine B assay; details: read-out: Activity
# [25] = Antiproliferative activity against human OVCAR5 cells assessed as cell growth at 10^-7 M after 48 hrs by sulforhodamine B assay; details: OVCAR-5, 48 h, read-out: Activity
# NCI-H522 = assay: Antiproliferative activity against human NCI-H522 cells assessed as growth inhibition after 48 hrs by sulforhodamine B assay; details: NCI-H522, 48 h
# [26] = Antiproliferative activity against human Caki1 cells assessed as cell growth at 10^-8 M after 48 hrs by sulforhodamine B assay; details: CAKI-1, 48 h, read-out: Activity
# [27] = Antiproliferative activity against human HL-60(TB) cells assessed as cell growth at 10^-8 M after 48 hrs by sulforhodamine B assay; details: HL-60, 48 h, read-out: Activity
# [28] = read-out: LC50 (the source's name)
compound,measurement,setting,value
CNC(=O)c1cc(Oc2ccc3nc(NC(=O)c4cc(C(F)(F)F)cc(C(F)(F)F)c4)sc3c2)ccn1,growth at 100 µM,[1],15%
same,growth at 0.01 µM,[2],97%
same,GI50,SK-MEL-5,1.68 µM
same,TGI,SK-MEL-5,3.63 µM
same,CC50,SK-MEL-5; [28],7.87 µM
same,growth at 0.01 µM,[3],105%
same,GI50,CCRF-CEM,3.47 µM
same,TGI,CCRF-CEM,> 100 µM
same,CC50,CCRF-CEM; [28],> 100 µM
same,growth at 100 µM,[4],-10%
same,growth at 0.01 µM,[5],111%
same,growth at 0.1 µM,MDA-MB-435 [6],92%
same,growth at 0.1 µM,[7],92%
same,growth at 0.01 µM,[8],97%
same,growth at 0.01 µM,[9],105%
same,GI50,SK-MEL-2,2.32 µM
same,TGI,SK-MEL-2,6.7 µM
same,CC50,SK-MEL-2; [28],81.6 µM
same,growth at 0.1 µM,[10],87%
same,growth at 1 µM,K562,102%
same,growth at 100 µM,[11],-61%
same,growth at 1 µM,[12],105%
same,growth at 100 µM,[13],-63%
same,GI50,MDA-MB-435 [14],3.28 µM
same,TGI,MDA-MB-435 [14],20.4 µM
same,CC50,MDA-MB-435 [14]; [28],> 100 µM
same,GI50,NCI-H23,3.37 µM
same,LC50,NCI-H23,> 100 µM
same,TGI,NCI-H23,17.7 µM
same,growth at 0.1 µM,EKVX,91%
same,growth at 0.01 µM,MDA-MB-435 [15],101%
same,GI50,[16],3.12 µM
same,TGI,[16],27.2 µM
same,CC50,[16]; [28],> 100 µM
same,growth at 1 µM,[17],80%
same,growth at 0.1 µM,[18],97%
same,growth at 0.1 µM,[19],104%
same,growth at 1 µM,ACHN,96%
same,growth at 0.1 µM,[20],103%
same,growth at 1 µM,[21],90%
same,GI50,[22],2.42 µM
same,LC50,[22],> 100 µM
same,TGI,[22],> 100 µM
same,GI50,[23],2.89 µM
same,TGI,[23],8.12 µM
same,CC50,[23]; [28],> 100 µM
same,GI50,[24],3.41 µM
same,LC50 (concentration killing 50% of the starting cells),[24],42.4 µM
same,TGI,[24],11.9 µM
same,growth at 100 µM,T47D,-40%
same,growth at 0.1 µM,[25],80%
same,GI50,NCI-H522,2.82 µM
same,LC50 (concentration killing 50% of cells),NCI-H522,64.1 µM
same,TGI,NCI-H522,8.77 µM
same,growth at 0.01 µM,[26],101%
same,growth at 0.01 µM,[27],92%
